Consider one compound from publication doi:10.1101/2025.04.18.649305v1 (biorxiv, 2025).

The target in the assay is NAMPT (recombinant human) (Homo sapiens, UniProt P43490). Put plainly: biolayer interferometry. Format: binding.
NAMPT (recombinant human), sequence (P43490 whole entry): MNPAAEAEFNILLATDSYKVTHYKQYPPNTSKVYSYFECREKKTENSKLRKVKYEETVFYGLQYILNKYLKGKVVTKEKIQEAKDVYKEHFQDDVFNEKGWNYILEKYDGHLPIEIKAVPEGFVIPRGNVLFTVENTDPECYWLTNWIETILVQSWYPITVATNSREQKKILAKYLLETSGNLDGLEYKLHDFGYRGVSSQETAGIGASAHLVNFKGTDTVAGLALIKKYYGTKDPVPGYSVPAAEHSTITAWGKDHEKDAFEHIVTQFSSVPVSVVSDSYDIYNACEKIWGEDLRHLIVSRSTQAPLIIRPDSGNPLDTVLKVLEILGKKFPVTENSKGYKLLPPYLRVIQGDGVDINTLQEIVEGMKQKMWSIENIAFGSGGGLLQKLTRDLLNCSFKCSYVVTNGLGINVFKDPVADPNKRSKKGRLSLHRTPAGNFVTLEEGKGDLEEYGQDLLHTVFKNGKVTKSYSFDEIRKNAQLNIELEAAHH

With `O=C(CC(C(=O)O)c1c[nH]c2ccccc12)c1ccc(F)cc1F` (racemic) [MA-5], the Kd was determined as 106 µM.
